From the OligoGym collection
Where “and” joins values, the source holds several entries; their conditions need not be identical. Equal entries are not always repeated. After the bases stand the sugars from the 5' end (letter, count) and the backbone: PS all phosphorothioate, else s phosphorothioate and o phosphodiester by linkage. Methylation of C is not given here. e = 2'-O-(2-methoxyethyl) (MOE); k = constrained ethyl (cEt); d = 2'-deoxy (DNA)

Tests used:
SOD1 = conditions: ASO
MALAT1 = conditions: ASO, A431, 0.005 µM

AGGATACATTTCTACAGCTA (sugars e5 d10 e5, PS)
target mRNA inhibition (SOD1; HepG2, 0.1875 µM): 29% | target mRNA inhibition (SOD1; HepG2, 0.75 µM): 47% | target mRNA inhibition (SOD1; HepG2, 3 µM): 82% | target mRNA inhibition (SOD1; HepG2, 4 µM): 56% | target mRNA inhibition (SOD1; HepG2, 5 µM): 79% | target mRNA inhibition (SOD1; HepG2, 12 µM): 80% and 96%

AGGATTAAAGTGAGGAC (sugars e3 k2 d7 k2 e3, PS)
target mRNA inhibition (SOD1; HepG2, 3 µM): 23%

AGGTACTTTAAAGCAACTCT (sugars e5 d10 e5, PS)
target mRNA inhibition (SOD1; HepG2, 5 µM): 36%

AGGTCATTGAAACAGAC (sugars e3 k2 d7 k2 e3, PS)
target mRNA inhibition (SOD1; HepG2, 3 µM): 21%

AGTGAGGACCTGCACTG (sugars e3 k2 d7 k2 e3, PS)
target mRNA inhibition (SOD1; HepG2, 3 µM): 21%

AGTGTTTAATGTTTATC (sugars ekekddddddddeeeee, linkages s1 o2 s9 o2 s2)
target mRNA inhibition (SOD1; A431, 0.062 µM): 24% | target mRNA inhibition (SOD1; A431, 0.185 µM): 37% | target mRNA inhibition (SOD1; A431, 0.556 µM): 57% | target mRNA inhibition (SOD1; A431, 1.667 µM): 77% | target mRNA inhibition (SOD1; A431, 5 µM): 81% | target mRNA inhibition (SOD1; A431, 15 µM): 86% | target mRNA inhibition (SOD1; SH-SY5Y, 0.062 µM): 3% | target mRNA inhibition (SOD1; SH-SY5Y, 0.185 µM): 6% | target mRNA inhibition (SOD1; SH-SY5Y, 0.556 µM): 48% | target mRNA inhibition (SOD1; SH-SY5Y, 1.667 µM): 69% | target mRNA inhibition (SOD1; SH-SY5Y, 5 µM): 77% | target mRNA inhibition (SOD1; SH-SY5Y, 15 µM): 87%

AGTGTTTAATGTTTATC (sugars ekekddddddddkekee, linkages s1 o2 s9 o2 s2)
target mRNA inhibition (SOD1; A431, 0.062 µM): 52% | target mRNA inhibition (SOD1; A431, 0.185 µM): 68% | target mRNA inhibition (SOD1; A431, 0.556 µM): 79% | target mRNA inhibition (SOD1; A431, 1.667 µM): 88% | target mRNA inhibition (SOD1; A431, 5 µM): 89% | target mRNA inhibition (SOD1; A431, 15 µM): 91% | target mRNA inhibition (SOD1; SH-SY5Y, 0.062 µM): 38% | target mRNA inhibition (SOD1; SH-SY5Y, 0.185 µM): 49% | target mRNA inhibition (SOD1; SH-SY5Y, 0.556 µM): 61% | target mRNA inhibition (SOD1; SH-SY5Y, 1.667 µM): 83% | target mRNA inhibition (SOD1; SH-SY5Y, 5 µM): 81% | target mRNA inhibition (SOD1; SH-SY5Y, 15 µM): 84%

AGTGTTTAATGTTTATCAGG (sugars e5 d10 e5, linkages s1 o3 s11 o3 s1)
target mRNA inhibition (SOD1; A431, 0.12 µM): 16% | target mRNA inhibition (SOD1; A431, 0.6 µM): 49% | target mRNA inhibition (SOD1; A431, 3 µM): 60% | target mRNA inhibition (SOD1; A431, 15 µM): 75% | target mRNA inhibition (SOD1; HepG2, 0.222 µM): 28% | target mRNA inhibition (SOD1; HepG2, 0.667 µM): 55% | target mRNA inhibition (SOD1; HepG2, 2 µM): 89% | target mRNA inhibition (SOD1; HepG2, 6 µM): 80%

ATAATAAGTGCCATACA (sugars e2 k2 d9 k2 e2, PS)
target mRNA inhibition (SOD1; HepG2, 5 µM): 27%

ATACAGGTCATTGAAAC (sugars e2 k2 d8 k2 e3, PS)
target mRNA inhibition (SOD1; HepG2, 5 µM): 33%

ATCTTCAATAGACACATCGG (sugars e5 d10 e5, PS)
target mRNA inhibition (SOD1; HepG2, 5 µM): 16% and 0%

ATGCAATGGTCTCCTGAGAG (sugars e5 d10 e5, PS)
target mRNA inhibition (SOD1; HepG2, 5 µM): 0%

ATGCTTCCCCACACCTT (sugars e3 k2 d7 k2 e3, PS)
target mRNA inhibition (SOD1; HepG2, 3 µM): 41%

ATGTTTATCAGGATACA (sugars e2 k2 d8 k2 e3, PS)
target mRNA inhibition (SOD1; HepG2, 0.1875 µM): 40% | target mRNA inhibition (SOD1; HepG2, 0.75 µM): 75% | target mRNA inhibition (SOD1; HepG2, 3 µM): 92% | target mRNA inhibition (SOD1; HepG2, 4 µM): 85% and 86% | target mRNA inhibition (SOD1; HepG2, 12 µM): 95% and 98%

TTGAGATGGACATTGC (sugars k3 d10 k3, PS)
target mRNA inhibition (MALAT1): 87% and 72%

TTGATCCCAACTCATC (sugars k3 d10 k3, PS)
target mRNA inhibition (MALAT1): 33%

TTGCCCCAACACTGAA (sugars k3 d10 k3, PS)
target mRNA inhibition (MALAT1): 7%

TTGCCCGCTTTCCCCC (sugars k3 d10 k3, PS)
target mRNA inhibition (MALAT1): 19%

TTGCCGACCTCACGGA (sugars k3 d10 k3, PS)
target mRNA inhibition (MALAT1): 30%

TTGCTCGCTTGCTCCT (sugars k3 d10 k3, PS)
target mRNA inhibition (MALAT1): 40%

TTGGTTACCAATAATT (sugars k3 d10 k3, PS)
target mRNA inhibition (MALAT1): 24%

TTGTGGTTATAGCTTG (sugars k3 d10 k3, PS)
target mRNA inhibition (MALAT1): 68% and 93%

TTGTTCGAGAAATCGG (sugars k3 d10 k3, PS)
target mRNA inhibition (MALAT1): 5%

TTTAAAAAGGCTCGAT (sugars k3 d10 k3, PS)
target mRNA inhibition (MALAT1): 28%

TTTAAAAGATCGCCTT (sugars k3 d10 k3, PS)
target mRNA inhibition (MALAT1): 50%

TTTAAACGGGTCATCA (sugars k3 d10 k3, PS)
target mRNA inhibition (MALAT1): 10%

TTTAAGGTTGCATCTG (sugars k3 d10 k3, PS)
target mRNA inhibition (MALAT1): 41%

TTTACTTGCCAACAGA (sugars k3 d10 k3, PS)
target mRNA inhibition (MALAT1): 27%

TTTACTTTCCATTACG (sugars k3 d10 k3, PS)
target mRNA inhibition (MALAT1): 16%

TTTATAGACCCCTGAC (sugars k3 d10 k3, PS)
target mRNA inhibition (MALAT1): 22%

TTTCCCCAATCAAGAT (sugars k3 d10 k3, PS)
target mRNA inhibition (MALAT1): -4%

TTTGGCATATGCAGAT (sugars k3 d10 k3, PS)
target mRNA inhibition (MALAT1): 24%

TTTTACCAACCACTCG (sugars k3 d10 k3, PS)
target mRNA inhibition (MALAT1): 31%

TTTTAGTCACTGGATA (sugars k3 d10 k3, PS)
target mRNA inhibition (MALAT1): 45%
